The text below walks through data of ChEMBL document CHEMBL1201862, “PubChem BioAssay data set” (2004).

Test [1] can be described thus: inhibitors of SNCA 5'UTR-driven reporter translation, confirmation, H4 neuroglioma cells, luminescence (AID 1988). Format: functional, cell-based.
Test [2] can be described thus: Luminescence Cell-Based Dose Response HTS to Identify Inhibitors of 5'UTR Stem-Loop Driven Prion Protein mRNA Translation in H4 Neuroglioblastoma Cells. [Related pubchem assays: 1827 (Project Summary), 1813 (Primary HTS)]. Format: functional.
Test [3] is described as follows: inhibitors of firefly luciferase expression or activity, dose response, H4 neuroglioma cells, luminescence (AID 1990). Format: functional, cell-based.
Test [4] deals with T1, Heat shock factor protein 1 (Mus musculus, UniProt P38532).
T1 sequence (P38532 whole entry): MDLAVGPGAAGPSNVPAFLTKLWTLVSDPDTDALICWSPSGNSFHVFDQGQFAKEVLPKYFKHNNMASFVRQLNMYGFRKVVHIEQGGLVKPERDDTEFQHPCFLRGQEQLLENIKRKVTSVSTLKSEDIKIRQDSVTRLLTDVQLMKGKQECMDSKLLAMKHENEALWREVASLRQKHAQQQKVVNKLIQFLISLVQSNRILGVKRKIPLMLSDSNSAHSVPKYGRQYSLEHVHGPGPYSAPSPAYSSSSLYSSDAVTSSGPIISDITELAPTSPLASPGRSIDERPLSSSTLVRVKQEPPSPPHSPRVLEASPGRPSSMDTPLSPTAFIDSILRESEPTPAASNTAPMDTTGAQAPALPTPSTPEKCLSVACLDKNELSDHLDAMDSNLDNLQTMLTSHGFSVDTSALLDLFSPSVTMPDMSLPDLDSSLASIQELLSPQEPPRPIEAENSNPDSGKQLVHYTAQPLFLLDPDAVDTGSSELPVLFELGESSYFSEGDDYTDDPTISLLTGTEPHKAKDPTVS
Nature of the test: HSF1 potentiators in luciferase reporter cells, confirmation, cell-based, NIH3T3, luminescence, dose retest (AID 435004).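 Further: stress induced by proteasome inhibitor MG132 added 30 min after compound; luciferase reporter driven by HSF1 response element in NIH3T3 cells; actives raise luminescence as potentiators of the MG132 stress response.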 Format: functional. (A reporter such as luciferase makes a cellular process visible.)

Test [5] addresses Cytochrome P450 3A4 (Homo sapiens, UniProt P08684).
The target in test [6] is T2, Cytochrome P450 1A2 (Homo sapiens, UniProt P05177).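 Further: PubChem cytochrome P450 panel assay, CYP1A2 panel member.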
T2 sequence (P05177 whole entry): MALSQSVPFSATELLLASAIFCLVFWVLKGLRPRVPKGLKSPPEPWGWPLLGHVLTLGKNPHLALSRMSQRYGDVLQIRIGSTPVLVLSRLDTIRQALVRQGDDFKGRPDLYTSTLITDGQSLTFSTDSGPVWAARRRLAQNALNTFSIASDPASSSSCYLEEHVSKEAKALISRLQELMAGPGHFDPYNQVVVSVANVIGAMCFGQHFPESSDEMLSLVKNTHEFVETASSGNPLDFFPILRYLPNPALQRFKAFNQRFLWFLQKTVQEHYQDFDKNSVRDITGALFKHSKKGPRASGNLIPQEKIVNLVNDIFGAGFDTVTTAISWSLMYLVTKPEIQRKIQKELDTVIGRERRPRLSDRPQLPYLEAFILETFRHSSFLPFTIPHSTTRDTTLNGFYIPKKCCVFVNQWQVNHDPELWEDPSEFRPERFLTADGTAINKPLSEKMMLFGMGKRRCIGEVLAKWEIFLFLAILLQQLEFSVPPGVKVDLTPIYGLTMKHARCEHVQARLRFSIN

The target of test [7] is Cytochrome P450 2C19 (Homo sapiens, UniProt P33261). Nature of the test: Cytochrome panel assay with activity outcomes. Panel member name: p450-cyp2c19 Compounds with AC50 equal or less than 10 uM are considered active. The format is functional. The settings on record: read-out: AC50.
Chain of Cytochrome P450 2C19 (P33261 whole entry): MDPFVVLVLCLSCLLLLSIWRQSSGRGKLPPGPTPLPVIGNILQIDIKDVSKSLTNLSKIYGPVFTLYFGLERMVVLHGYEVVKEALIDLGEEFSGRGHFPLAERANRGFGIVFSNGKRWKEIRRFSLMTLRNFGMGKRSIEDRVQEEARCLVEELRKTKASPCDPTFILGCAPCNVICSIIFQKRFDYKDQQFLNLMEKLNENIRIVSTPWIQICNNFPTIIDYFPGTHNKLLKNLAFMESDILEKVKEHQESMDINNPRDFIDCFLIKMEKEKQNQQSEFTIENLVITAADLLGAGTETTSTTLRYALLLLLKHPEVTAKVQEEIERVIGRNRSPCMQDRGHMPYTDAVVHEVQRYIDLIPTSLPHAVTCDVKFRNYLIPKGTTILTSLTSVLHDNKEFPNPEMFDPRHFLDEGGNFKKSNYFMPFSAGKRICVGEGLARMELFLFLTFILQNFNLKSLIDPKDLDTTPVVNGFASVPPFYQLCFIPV
Test [8] in a line: Luminescence Cell-Based Dose Retest to Confirm Inhibitors of Cancer Stem Cells. [Related pubchem assays (depositor defined):AID2717, AID2721]. Format: functional. To be noted: Homo sapiens.
Test [9] deals with Streptococcus sp. 'group A'. Kind of test: growth inhibition of control SK(-) GAS strain, dose response, counter-screen for streptokinase expression inhibitor project, luminescence, kanamycin, BacTiterGlo, confirmation (AID 1900). Format: functional, organism-based.
The test system of test [10] is Streptococcus. Nature of the test: Group A Streptococcus viability loss, dose response, counter-screen for streptokinase expression inhibitor project, luminescence, BacTiterGlo (AID 1915).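 Further: potency for reduction of bacterial viability or growth.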 The format is functional, organism-based. In general terms: The purpose of a counterscreen is to sort out artefacts and off-target activity.
In test [11] the target is T3, Streptokinase A (Streptococcus pyogenes serotype M1, UniProt P10520).
T3 sequence (P10520 whole entry): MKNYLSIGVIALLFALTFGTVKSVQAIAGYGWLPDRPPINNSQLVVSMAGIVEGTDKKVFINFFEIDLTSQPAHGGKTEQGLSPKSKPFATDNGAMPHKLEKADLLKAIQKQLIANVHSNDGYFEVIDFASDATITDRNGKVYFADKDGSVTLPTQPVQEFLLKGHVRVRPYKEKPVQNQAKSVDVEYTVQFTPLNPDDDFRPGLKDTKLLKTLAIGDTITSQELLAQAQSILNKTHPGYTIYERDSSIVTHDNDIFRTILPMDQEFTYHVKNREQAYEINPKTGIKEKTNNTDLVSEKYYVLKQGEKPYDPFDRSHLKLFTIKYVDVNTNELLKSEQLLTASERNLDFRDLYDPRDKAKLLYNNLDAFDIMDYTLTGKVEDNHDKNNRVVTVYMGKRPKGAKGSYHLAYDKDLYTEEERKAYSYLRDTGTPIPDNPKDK
Nature of the test: S. pyogenes streptokinase expression inhibitors, potency, dose response, plasminogen activation absorbance, OD405 (AID 1914).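 Further: secreted streptokinase activity via plasminogen activation per viability signal from cell pellet.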 The format is functional, Streptococcus pyogenes M1 GAS.

Test [12] concerns the target Cytochrome P450 2C9 (Homo sapiens, UniProt P11712).
A short description of test [13]: cytotoxicity toward NIH3T3 fibroblasts, dose response, counter-screen, cell-based, ATP luminescence, mouse fibroblasts (AID 2010).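 Further: cells exposed to compound for about 90 hours before reading.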 The format is functional.
Test [14] in a line: inhibitors of intracellular T. cruzi replication, confirmation, NIH3T3 host cells, beta-gal luminescence (AID 2044).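 Further: intracellular parasites grown in NIH/3T3 mouse fibroblasts as host cells; luminescent beta-galactosidase reporter signal from transgenic T. cruzi replicating inside host cells; inhibitors lower the luminescence signal.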 Format: functional, cell-based.
For test [15], the target named is Cytochrome P450 2D6 (Homo sapiens, UniProt P10635).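 Further: CYP2D6 member of a cytochrome P450 panel assay.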
Chain of Cytochrome P450 2D6 (P10635 whole entry): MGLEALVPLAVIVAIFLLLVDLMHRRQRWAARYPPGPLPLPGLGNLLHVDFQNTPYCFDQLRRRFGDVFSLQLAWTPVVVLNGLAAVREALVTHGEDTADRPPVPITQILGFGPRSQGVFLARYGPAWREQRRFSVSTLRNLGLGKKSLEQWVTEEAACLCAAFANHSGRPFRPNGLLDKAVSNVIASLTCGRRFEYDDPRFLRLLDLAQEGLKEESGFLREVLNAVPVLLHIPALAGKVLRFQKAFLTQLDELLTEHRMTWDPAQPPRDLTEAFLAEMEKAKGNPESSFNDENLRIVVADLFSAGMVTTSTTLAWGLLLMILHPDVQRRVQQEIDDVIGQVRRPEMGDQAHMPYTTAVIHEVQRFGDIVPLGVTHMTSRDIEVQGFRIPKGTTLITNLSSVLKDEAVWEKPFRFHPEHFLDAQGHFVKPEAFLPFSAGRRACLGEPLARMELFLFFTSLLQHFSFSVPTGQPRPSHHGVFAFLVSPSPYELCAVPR
Test [16] has as its target T1, Heat shock factor protein 1. Nature of the test: inhibition of MG132-induced HSE-luciferase signal, confirmation, cell-based, NIH3T3, luminescence, dose retest (AID 2382).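 Further: NIH3T3 fibroblasts with HSF1-driven luciferase reporter stressed by proteasome inhibitor MG132; luminescence from HSF1-driven luciferase expression after 8 hours of MG132 stress.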 The format is functional.

SMILES strings stand for the structures. The source made the active and inactive calls.

Chain of Cytochrome P450 3A4 (P08684 whole entry): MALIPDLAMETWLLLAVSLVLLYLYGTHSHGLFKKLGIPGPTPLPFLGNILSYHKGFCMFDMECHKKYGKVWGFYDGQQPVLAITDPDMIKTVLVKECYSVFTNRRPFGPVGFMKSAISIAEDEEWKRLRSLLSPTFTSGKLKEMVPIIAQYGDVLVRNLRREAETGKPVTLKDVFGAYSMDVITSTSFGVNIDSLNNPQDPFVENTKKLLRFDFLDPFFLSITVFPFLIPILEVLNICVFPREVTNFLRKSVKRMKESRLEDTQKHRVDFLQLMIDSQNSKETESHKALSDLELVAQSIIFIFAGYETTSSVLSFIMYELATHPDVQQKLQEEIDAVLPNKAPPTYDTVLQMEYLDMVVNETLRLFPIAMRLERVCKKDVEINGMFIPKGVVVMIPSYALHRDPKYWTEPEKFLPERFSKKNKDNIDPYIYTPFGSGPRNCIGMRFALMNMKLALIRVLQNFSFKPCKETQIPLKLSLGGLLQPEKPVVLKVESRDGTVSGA
Chain of Cytochrome P450 2C9 (P11712 whole entry): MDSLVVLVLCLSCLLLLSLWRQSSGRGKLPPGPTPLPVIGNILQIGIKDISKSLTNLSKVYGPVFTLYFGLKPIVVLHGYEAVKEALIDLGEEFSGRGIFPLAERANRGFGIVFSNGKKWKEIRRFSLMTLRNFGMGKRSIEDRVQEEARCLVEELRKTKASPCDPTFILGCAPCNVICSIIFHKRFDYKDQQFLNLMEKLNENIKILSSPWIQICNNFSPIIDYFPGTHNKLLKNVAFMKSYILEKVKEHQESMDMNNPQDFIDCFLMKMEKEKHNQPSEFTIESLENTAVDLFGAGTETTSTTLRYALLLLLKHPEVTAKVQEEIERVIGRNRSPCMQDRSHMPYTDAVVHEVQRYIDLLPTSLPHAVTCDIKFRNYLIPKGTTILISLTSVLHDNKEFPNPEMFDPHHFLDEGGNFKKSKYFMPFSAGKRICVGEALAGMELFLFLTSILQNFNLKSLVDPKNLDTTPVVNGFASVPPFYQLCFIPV

For the molecule `N#Cc1ccsc1NC(=O)COC(=O)CCCSc1nc2ccccc2s1`, the concentration giving a half-maximal response (EC50) in [1] was 16.1 µM (active); in [2] it was > 120 µM (not active); in test [3] it was > 120 µM (not active).
For the molecule `COc1ccc(C(=O)CC(=O)C(=O)Nc2cc(OC)c(OC)c(OC)c2)cc1`, the EC50 in test [4] was > 260 µM (inactive).
For `O=c1c(-c2ccc(Cl)cc2)nc2cnc(N3CCNCC3)nc2n1Cc1ccc(F)cc1`, the results for the AC50 in test [5], in [6] and in test [7] were 12.6 µM (inconclusive), 15.8 µM (inconclusive) and 39.8 µM (inconclusive), respectively.
For the molecule `COC(=O)[C@@]1(Cc2ccc(F)cc2)[C@H]2c3cc(C(=O)N(C)C)n(Cc4cccc5ccccc45)c3C[C@H]2CN1C(=O)c1ccccc1`, the AC50 in test [6] was 6.31 µM (inconclusive).
As for `Cc1nn(C(C)C(=O)NCCCN2CCCCC2C)c(=O)c2c1sc1ccccc12` (configuration not stated), in test [4], the EC50 is > 260 µM (inactive).
Turning to `Cc1ccc(CNc2nc(-c3cccs3)nc3ccccc23)cc1`, in test [8], the half-maximal activity concentration (AC50) was 7 µM (active).
Take `CCCc1nc(NCc2ccccc2)c(C#N)c2c1CCCC2`: the EC50 in test [1] was > 120 µM (not active); in test [2], > 120 µM (not active); in test [9] it was 14.9 µM (active); in test [3], > 120 µM (not active); in test [10], 18.5 µM (active); in [11], 3.06 µM (active).
For the molecule `O=c1c(-c2ccccc2)nc2cnc(N3CCNCC3)nc2n1Cc1ccc(F)cc1`, the figures for the AC50 in test [6] and in [7] were 20 µM (inconclusive) and 31.6 µM (inconclusive), respectively.
On to `COc1cccc(Cn2c(=O)c(CCc3ccccc3)nc3cncnc32)c1`, for which the AC50 in test [6] is 12.6 µM (inconclusive); in [7], 25.1 µM (inconclusive); in [12], 12.6 µM (inconclusive).
Regarding `Brc1ccccc1Cn1c(-c2cncs2)nc2ccccc21`, the EC50 is > 120 µM (not active) in test [1], > 120 µM (not active) in test [2] and 17.1 µM (active) in test [3].
For `Cc1ccc(C(=O)Cn2nc(C(=O)O)c3ccccc3c2=O)cc1C`, in test [4], the EC50 is > 260 µM (inactive).
Same read-out and setting: the figure for `CCN1CCSc2ccc(C(=O)NCc3cccc(Br)c3)cc21` is > 260 µM (inactive).
On to `Cc1ccc(-c2cc([C@H]3[C@@H]4C=CCC[C@@]4(C)C(=O)N3Cc3ccccc3)ccc2F)cc1`, for which, in [8], the AC50 is 3.16 µM (active). Moreover, the results for the 50% effective concentration (EC50) in test [9], in test [10] and in test [11] were 5.4 µM (active), 18 µM (active) and 4.92 µM (active), respectively.
Consider `O=C(Nc1ccc2c(c1)OCO2)c1nn(-c2ccccc2)c(=O)c2ccccc12`, for which the values for the EC50 in test [1], in [2] and in test [3] were > 120 µM (not active), 24 µM (active) and > 120 µM (not active), respectively.
In the case of `Cc1ccc(-n2ccc(=O)c(-c3ccnc(SCc4cccc(Cl)c4)n3)n2)cc1`, in test [6], the AC50 is 14.1 µM (inconclusive).
For `COc1ccc(CNC2CCSc3ccccc32)cc1OC` (configuration not stated), the EC50 in test [4] is > 260 µM (inactive).
On to `Cn1c(C(=O)OC(C(=O)NC(C)(C)C)c2cccnc2)cc2sccc21` (configuration not stated), for which the half-maximal effective concentration (EC50) in [13] was 48.4 µM (active); in [14] it was 1.23 µM (active); in [4], > 260 µM (inactive).
Regarding `Nc1c(S(=O)(=O)c2ccccc2)c2nc3ccccc3nc2n1Cc1ccco1`, in test [6], the half-maximal activity concentration (AC50) was 22.4 µM (inconclusive).
Turning to `NCCCCCc1nnc(SCc2ccccc2Cl)o1`, the AC50 in test [6] was 28.2 µM (inconclusive); in test [12] it was 25.1 µM (inconclusive). Further, the figures for the EC50 in [1], in [2] and in [3] were 12.8 µM (active), 15.7 µM (active) and 14.7 µM (active), respectively.
Take `CN1C(=O)/C(=C/c2cccc(Cl)c2)Sc2ccc(C(=O)NCc3cccnc3)cc21`: the concentration at half-maximal activity (AC50) in test [8] is 1.63 µM (active).
On to `CCN(CC)CCC(=O)Nc1ccc2c(c1)N(C(=O)CN(CC)CC)c1ccccc1CC2`, for which the AC50 in [15] is 15.8 µM (inconclusive).
The same measure, in the same setting: the figure for `c1cc(NC2CC2)nc(-c2ccoc2)n1` is 39.8 µM (inconclusive).
Still for that read-out and setting: the figure for `C/C(CCN1CCCCc2nc(C)c(C)cc21)=N\O[C@@H](C)c1cc(-c2c(C)cc(C)cc2C)no1` is 3.16 µM (inconclusive).
In the case of `N[C@H](C(=O)O)C1[C@H](C(=O)O)[C@H]1C(=O)O` (some centres not stated), the half-maximal activity concentration (AC50) in [6] and in test [7] was 31.6 µM (inconclusive) throughout.
For `CSc1nsc(/C=C/Nc2ccc(Cl)cc2)c1C#N`, the AC50 in [6] is 5.62 µM (inconclusive); in test [7] it was 3.55 µM (inconclusive).
On to `COc1ccc(N(CC(=O)Nc2ccc(S(=O)(=O)N3CCCCC3)cc2)S(C)(=O)=O)cc1OC`, for which the EC50 in test [1], in test [2] and in test [3] was > 120 µM (not active) each time.
As for `COc1cccc(S(=O)(=O)NCc2ccc(C(=O)Nc3cccc(Cl)c3)cc2)c1`, in test [8], the AC50 is 4.31 µM (active).
Regarding `O=C(Nc1ccc2c(c1)OCCO2)NC1(C(F)(F)F)Oc2ccccc2O1`, the EC50 was > 120 µM (not active) in [1], > 120 µM (not active) in [2], > 120 µM (not active) in test [3] and 12.5 µM (active) in test [16].
For the molecule `COC(=O)[C@@]1(Cc2ccc(OC)cc2)[C@H]2c3cc(C(=O)N4CCCC4)n(Cc4ccc(Cl)c(C(F)(F)F)c4)c3C[C@H]2CN1C(=O)c1ccccc1`, the results for the AC50 in test [5] and in test [6] were 1.26 µM (inconclusive) and 12.6 µM (inconclusive), respectively.
As to `COCCN(C(=O)C(C)C)c1nnc(-c2ccc(C)cc2)s1`, the half-maximal activity concentration (AC50) in test [6] is 12.6 µM (inconclusive).
For the molecule `Cc1cccn2c(=O)nc(SCC(=O)N3N=C(c4cccs4)CC3c3ccc(F)cc3)nc12` (configuration not stated), the concentration for a half-maximal effect (EC50) in test [13] was 11.6 µM (active); in [14] it was 1.48 µM (active); in test [4] it was > 260 µM (inactive).
On to `CC(=O)Nc1ccc2c(c1)N(C(=O)CN(C)C)c1ccccc1CC2`, for which the EC50 in test [4] was > 260 µM (inactive).
Regarding `Cc1c(C2(O)CCCCC2)[nH]c2ccc(C(F)(F)F)cc12`, the AC50 in [8] was 5.63 µM (active).
With `Cc1cc(F)c(F)c(C(=O)N2CCOCC2)c1Cl`, the EC50 in test [4] was > 260 µM (inactive).
Consider `O=C(CSc1nnc(-c2ccco2)n1-c1ccccc1)NCc1ccco1`, for which, in [15], the AC50 is 14.1 µM (inconclusive).
Consider `Cc1ccc(COc2ccccc2-c2cc(C(=O)N/N=C/c3cccnc3)[nH]n2)cc1`, for which the AC50 in test [8] was 0.778 µM (active).
Still for that read-out and setting: with `CC1SC(N/N=C/c2cccc([N+](=O)[O-])c2)=NC1=O` (configuration not stated) the figure was 2.38 µM (active).

The term EC50 denotes the concentration giving half of the maximal effect. A word on the AC50: it is the midpoint of the concentration-response curve, whichever way the signal moves.
